Measurements reported in patent US20230040770A1, “HETEROCYCLIC COMPOUND AND USE THEREOF” (TAKEDA PHARMACEUTICAL COMPANY LIMITED, priority 2019, published 2023).

target: T1, human orexin type 2 receptor (Homo sapiens, UniProt O43614); assay: Measurement of orexin type 2 receptor agonist activity (calcium indicator fluorescence, CHO cells forcibly expressing human OX2 receptor); assay type: cell-based; details: compound at 3 μM; 0% = DMSO, 100% = orexin A (human) 10 nM
T1 construct: expressed in transfected cells
T1 sequence (O43614 1-444): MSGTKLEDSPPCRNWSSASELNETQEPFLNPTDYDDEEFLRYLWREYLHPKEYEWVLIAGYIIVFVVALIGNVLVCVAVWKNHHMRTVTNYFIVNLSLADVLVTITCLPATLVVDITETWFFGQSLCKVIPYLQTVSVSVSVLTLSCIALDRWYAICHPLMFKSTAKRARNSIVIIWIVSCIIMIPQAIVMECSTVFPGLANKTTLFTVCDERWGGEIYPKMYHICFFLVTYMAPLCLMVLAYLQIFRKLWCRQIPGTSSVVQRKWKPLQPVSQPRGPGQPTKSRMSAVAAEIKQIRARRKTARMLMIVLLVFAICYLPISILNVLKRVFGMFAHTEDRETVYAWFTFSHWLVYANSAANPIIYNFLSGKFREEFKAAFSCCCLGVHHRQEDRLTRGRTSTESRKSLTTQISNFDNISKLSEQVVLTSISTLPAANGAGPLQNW
Summary of the method: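 Agonist response normalised between vehicle (0%) and orexin A at 10 nM final (100%), from kinetic Fluo-4 calcium signals recorded for about 2 min after compound addition. Cells: stable human OX2R CHO clone, dye-loaded 30 min at 37 °C plus 30 min at room temperature.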

| OX2R agonist activity (3 μM, %) [%] | Compound |
| --- | --- |
| 83 | CCS(=O)(=O)N[C@H]1[C@@H](F)CN(C(=O)C(C)C)[C@H]1Cc1cccc(-c2ccccc2)c1F [Example 293, N-[(2S,3R,4S)-4-fluoro-2-[(2-fluoro[1,1′-biphenyl]-3-yl)methyl]-1-(2-methylpropanoyl)pyrrolidin-3-yl]ethanesulfonamide] |
| 96 | CCS(=O)(=O)N[C@H]1[C@@H](F)CN(C(=O)N(C)C)[C@H]1Cc1cccc(-c2cc(F)ccc2F)c1F [Example 294, (2S,3R,4S)-3-[(ethanesulfonyl)amino]-4-fluoro-N,N-dimethyl-2-[(2,2′,5′-trifluoro[1,1′-biphenyl]-3-yl)methyl]pyrrolidine-1-carboxamide] |
| 95 | CCS(=O)(=O)N[C@H]1[C@@H](F)CN(C(=O)N(C)C)[C@H]1Cc1cccc(-c2ccccc2)c1F [Example 295, (2S,3R,4S)-3-[(ethanesulfonyl)amino]-4-fluoro-2-[(2-fluoro[1,1′-biphenyl]-3-yl)methyl]-N,N-dimethylpyrrolidine-1-carboxamide] |
| 96 | CCS(=O)(=O)N[C@H]1[C@@H](F)CN(C(=O)C(C)C)[C@H]1Cc1cccc(-c2cc(F)cc(F)c2)c1F [Example 296, N-{(2S,3R,4S)-4-fluoro-1-(2-methylpropanoyl)-2-[(2,3′,5′-trifluoro[1,1′-biphenyl]-3-yl)methyl]pyrrolidin-3-yl}ethanesulfonamide] |
| 95 | CCS(=O)(=O)N[C@H]1[C@@H](F)CN(C(=O)C(C)C)[C@H]1Cc1cccc(-c2cccc(F)c2F)c1F [Example 297, N-{(2S,3R,4S)-4-fluoro-1-(2-methylpropanoyl)-2-[(2,2′,3′-trifluoro[1,1′-biphenyl]-3-yl)methyl]pyrrolidin-3-yl}ethanesulfonamide] |
| 96 | CCS(=O)(=O)N[C@H]1[C@@H](F)CN(C(=O)C(C)C)[C@H]1Cc1cccc(-c2cccc(Cl)c2)c1F [Example 298, N-[(2S,3R,4S)-2-[(3′-chloro-2-fluoro[1,1′-biphenyl]-3-yl)methyl]-4-fluoro-1-(2-methylpropanoyl)pyrrolidin-3-yl]ethanesulfonamide] |
| 99 | CCS(=O)(=O)N[C@H]1[C@@H](F)CN(C(=O)C2CCO2)[C@H]1Cc1cccc(-c2cc(F)cc(F)c2)c1F (stereo partly drawn) [Example 304, N-{(2S,3R,4S)-4-fluoro-1-(oxetane-2-carbonyl)-2-[(2,3′,5′-trifluoro[1,1′-biphenyl]-3-yl)methyl]pyrrolidin-3-yl}ethanesulfonamide] |
| 103 | CCS(=O)(=O)N[C@H]1[C@@H](F)CN(C(=O)C2CCO2)[C@H]1Cc1cccc(-c2cc(F)cc(F)c2)c1F (stereo partly drawn) [Example 305, N-{(2S,3R,4S)-4-fluoro-1-(oxetane-2-carbonyl)-2-[(2,3′,5′-trifluoro[1,1′-biphenyl]-3-yl)methyl]pyrrolidin-3-yl}ethanesulfonamide] |
| 89 | CCS(=O)(=O)N[C@H]1[C@@H](F)CN(C(=O)C23CC(C2)C3)[C@H]1Cc1cccc(-c2cc(F)ccc2F)c1F [Example 306, N-{(2S,3R,4S)-1-(bicyclo[1.1.1]pentane-1-carbonyl)-4-fluoro-2-[(2,2′,5′-trifluoro[1,1′-biphenyl]-3-yl)methyl]pyrrolidin-3-yl}ethanesulfonamide] |
| 100 | CCS(=O)(=O)N[C@H]1[C@@H](F)CN(C(=O)C2CCO2)[C@H]1Cc1cccc(-c2cccc(F)c2F)c1F (stereo partly drawn) [Example 307, N-{(2S,3R,4S)-4-fluoro-1-(oxetane-2-carbonyl)-2-[(2,2′,3′-trifluoro[1,1′-biphenyl]-3-yl)methyl]pyrrolidin-3-yl}ethanesulfonamide] |
| 94 | CCS(=O)(=O)N[C@H]1[C@@H](F)CN(C(=O)C23CC(C2)C3)[C@H]1Cc1cccc(-c2ccccc2)c1F [Example 308, N-{(2S,3R,4S)-1-(bicyclo[1.1.1]pentane-1-carbonyl)-4-fluoro-2-[(2-fluoro[1,1′-biphenyl]-3-yl)methyl]pyrrolidin-3-yl}ethanesulfonamide] |
